Test results published in paper PMC10967856, “Mechanistic Insights Revealed by YbtPQ in the Occluded State” (Biomolecules, 2024).

Key:
YbtPQ [1] = molecular target: T1, YbtPQ (Escherichia coli, UniProt Q1RAG2+Q1RAG3); conditions: YbtPQ-nanodisc; basal ATPase activity, no Km given
T1 construct: gene ybtP

YbtPQ [2] = molecular target: T1, YbtPQ; conditions: trapping at 37 °C for 15 min, vanadate 0-20 mM tested (20 mM with 18 mM ATP and 54 mM MgCl2 for the cryo-EM sample); YbtPQ-nanodisc; traps as ADP-Vi

SMILES | ATPase activity, malachite green phosphate release (YbtPQ [1]) | % drop in ATPase activity after vanadate trapping (YbtPQ [2])
Nc1ncnc2c1ncn2[C@@H]1O[C@H](COP(=O)(O)OP(=O)(O)OP(=O)(O)O)[C@@H](O)[C@H]1O [ATP] | malachite green reacting with the released phosphate group | –
[O]=[V]([OH])([OH])[OH] [vanadate] | – | ~ 90%
